According to publication PMC7823860, “Flavonoid Glycosides with a Triazole Moiety for Marine Antifouling Applications: Synthesis and Biological Activity Evaluation” (Marine Drugs, 2020):
Values joined by “and” are separate entries in the source; they are usually repeats but may differ in a detail not shown here. Identical values can stand only once. Like-named read-outs stand apart in the source and are kept apart here.

Assays:
[1] = Mussel (Mytilus galloprovincialis) larvae anti-settlement bioassay; type: in vivo; settings: in vivo, mussel plantigrade larvae, read-out: LC50 (median lethal dose)
Experimental: (§1) Mussel (Mytilus galloprovincialis) plantigrades were collected in juvenile aggregates during low neap tides at Memória beach, Matosinhos, Portugal (41°13′59″ N; 8°43′28″ W). In laboratory, mussel plantigrade larvae (0.5–2 mm) were isolated in a binocular magnifier (Olympus SZX2-ILLT, Tokyo, Japan) to a petri dish with filtered seawater, and those with functional foot and competent exploring behaviour were selected for the bioassays. The flavonoids were screened at 50 µM in 24-well microplates with 4 well replicates per condition and 5 larvae per well, for 15 h, in the darkness at 18 ± 1 °C, following Almeida et al. (2015). Test solutions were obtained by dilution of the compounds stock solutions (50 mM) in DMSO and prepared with filtered seawater. All bioassays included a negative control with DMSO and a positive control with CuSO4, a potent AF agent. After the exposure period, the anti-settlement activity was determined by the presence/absence of attached byssal threads produced by each individual larvae.
(§2) All compounds that caused more than 60% of settlement inhibition (≤40% of settlement) in the screening bioassay were considered active and selected for the determination of the semi-maximum response concentration that inhibited 50% of larval settlement (EC50), at compounds concentrations of 3.12, 6.25, 12.5, 25, 50, 100, 200 μM.
(§3) Datasets from anti-settlement, antibacterial and anti-microalgal bioassay, and determination of AChE and Tyr activities, were analysed by one-way analysis of variance (ANOVA) followed by a multi-comparisons Dunnett’s test against negative control (p < 0.05). For the AF bioassays, the half maximum response concentration (EC50) values for each compound, when applicable, were calculated using Probit regression analysis. Significance was considered at p < 0.01, and 95% lower and upper confidence limits (95%LCL; UCL). The software IBM SPSS Statistics 26 (Armonk, New York, USA) was used for statistical analysis.

[2] = system: Mytilus galloprovincialis plantigrade larvae; assay: as above; type: in vivo; settings: 15 h, 15 h exposure, read-out: EC50 (minimum concentration that inhibited 50% of larval settlement)
Experimental: as §1, §2, §3

[3] = system: Navicula sp.; assay: Biofilm-forming marine diatom growth inhibition; type: cell-based; settings: 10 days
Experimental: The anti-microalgal activity of the most promising compounds was also evaluated against a benthic marine diatom, Navicula sp., purchased from the (Telde, Gran Canaria) Spanish Collection of Algae (BEA). Diatom cells were inoculated in f/2 medium (Sigma) at an initial concentration of 2–4 × 10^6 cells mL^−1 and grown in 96-well flat-bottom microtiter plates for 10 days at 20 °C. Navicula growth inhibition in the presence of each compound at 15 μM was determined in quadruplicate and quantified based on the difference in cell densities among the treatments, and cells were counted using a Neubauer counting chamber. A positive control with cycloheximide (3.55 μM) and a negative control with f/2 medium 0.1% DMSO were included.
as §3

[4] = target: T1, Electrophorus electric AChE Type V-S (Electrophorus electricus, UniProt O42275); assay: In vitro acetylcholinesterase (AChE) activity (Ellman); type: biochemical; settings: 25, 50 and 100 μM; versus negative control, p < 0.05
T1 construct: purchased SIGMA C2888
T1 sequence (O42275 24-633): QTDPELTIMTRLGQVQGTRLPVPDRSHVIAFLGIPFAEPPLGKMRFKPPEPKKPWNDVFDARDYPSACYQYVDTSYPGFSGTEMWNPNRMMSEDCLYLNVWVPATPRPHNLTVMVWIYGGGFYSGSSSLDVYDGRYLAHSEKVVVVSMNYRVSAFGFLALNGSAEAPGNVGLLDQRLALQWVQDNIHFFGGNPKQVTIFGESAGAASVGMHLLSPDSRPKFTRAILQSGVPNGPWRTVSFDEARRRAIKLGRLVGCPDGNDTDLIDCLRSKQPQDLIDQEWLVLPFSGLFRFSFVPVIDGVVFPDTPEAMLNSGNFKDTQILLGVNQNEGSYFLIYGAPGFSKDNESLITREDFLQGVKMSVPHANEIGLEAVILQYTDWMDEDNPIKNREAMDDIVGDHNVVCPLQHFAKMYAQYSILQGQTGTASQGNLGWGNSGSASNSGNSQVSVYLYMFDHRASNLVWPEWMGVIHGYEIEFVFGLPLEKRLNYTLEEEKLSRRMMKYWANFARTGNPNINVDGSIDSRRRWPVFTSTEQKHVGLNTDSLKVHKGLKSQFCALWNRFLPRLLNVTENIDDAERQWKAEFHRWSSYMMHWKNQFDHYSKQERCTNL
Experimental: (§4) The ability of the most promising compounds to inhibit AChE and Tyr was tested to assess their potential mode of action related with neurotransmission disruption or impairment of adhesive metabolism pathways, respectively.
AChE activity was evaluated using Electrophorus electric AChE Type V-S (SIGMA C2888, E.C. 3.1.1.7), according to Ellman et al. (1961) with some modifications. Reaction solution containing 1 M phosphate buffer pH 7.2, 10 mM dithiobisnitrobenzoate (DTNB) (acid dithiobisnitrobenzoate and sodium hydrogen carbonate in phosphate buffer) and 0.075 M […] was added to pure AChE enzyme (0.25 U/mL) and each test compound (final concentration of 25, 50 and 100 μM, 1% DMSO) in quadruplicate. All tests included a positive control with eserine (200 μM, water) and a negative control with 1% DMSO in water. The optical density was measured at 412 nm in a microplate reader (Biotek Synergy HT, Winooski, Vermont, USA) during 5 min at 25 °C.

[5] = system: Artemia salina nauplii; assay: Artemia salina nauplii lethality (ecotoxicity) bioassay; type: in vivo; settings: 25 and 50 μM, 48 h of exposure
Experimental: The brine shrimp (Artemia salina) nauplii lethality test was used to determine the toxicity of promising AF compounds to non-target organisms. Artemia salina eggs were allowed to hatch in seawater for 48 h at 25 °C. Bioassays were performed in 96-wells microplates with 15–20 nauplii per well and 200 μL of the compounds test solution. Compounds were tested at final concentrations of 25 and 50 μM (filtered seawater with 1% DMSO). All tests included K2Cr2O7 (13.6 μM) as positive control and DMSO (1%) as negative control. Bioassays were run in the dark at 25 °C, and the percentage of mortality was determined after 48 h of exposure.

[6] = system: Roseobacter litoralis CECT 5395; assay: Biofilm-forming marine bacteria growth inhibition; type: cell-based; settings: 15 µM, 24 h, Dunnett test p < 0.05
Experimental: For anti-bacterial screening, five strains of marine biofilm-forming bacteria from the Spanish Type Culture Collection (CECT): Cobetia marina CECT 4278, Vibrio harveyi CECT 525, Halomonas aquamarina CECT 5000, Pseudoalteromonas atlantica CECT 570, and Roseobacter litoralis CECT 5395 were used. Bacteria were inoculated and incubated for 24 h at 26 °C in marine broth (Difco) at an initial density of 0.1 (OD600) in 96 well flat-bottom microtiter plates and exposed to the test compounds at 15 μM. Test solutions were obtained by dilution of the compounds stock solutions (50 mM) in DMSO. Bacterial growth inhibition in the presence of the compounds was determined in quadruplicate at 600 nm using a microplate reader (Biotek Synergy HT, Vermont, USA). Negative and positive controls used were a solution of marine broth with DMSO, and a solution of marine broth with penicillin–streptomycin–neomycin, respectively. […]
as §3, with “Significance was considered at p < 0.01, and 95% lower and upper confidence limits (95%LCL; UCL). The software IBM SPSS Statistics 26 (Armonk, New York, USA) was used for statistical analysis.” left out

[7] = system: Artemia salina nauplii; design: method as in PMID 29936172; settings: same concentrations (25 and 50 μM) and conditions; cited from earlier work
[8] = system: Agaricus bisporus Tyr; assay: In vitro tyrosinase (Tyr) inhibition assay (L-Dopa to dopachrome); type: biochemical
Experimental: as §4
Tyr inhibition assay was performed using Agaricus bisporus Tyr (EC1.14.18.1) according to Adhikari et al. (2008) with some modifications. The enzymatic reaction follows the catalytic conversion of L-Dopa to dopaquinone and the formation of dopachrome by measuring the absorbance at 475 nm. Briefly, Tyr (25 U/mL) was added to 50 mM phosphate buffer pH 6.5 and the tested compounds at 25, 50 and 100 μM (final concentrations, 1% DMSO). The enzymatic activity was triggered by the addition of L-dopa (25 mM). Kojic acid (1.4 mM, water) was included as positive control and 1% DMSO in water as negative control.

`COc1cc(-c2cc(=O)c3c(O)cc(OCc4cn([C@@H]5O[C@H](COC(C)=O)[C@@H](OC(C)=O)[C@H](OC(C)=O)[C@H]5OC(C)=O)nn4)cc3o2)cc(OC)c1OC` showed a melting point of 169 to 171 °C.
For `COc1cc(/C=C/C(=O)c2ccc(OCc3cn(CCO[C@H]4O[C@H](COC(C)=O)[C@@H](OC(C)=O)[C@H](OC(C)=O)[C@@H]4OC(C)=O)nn3)cc2O)cc(OC)c1OC` [8b, (2R,3R,4S,5S,6S)-2-(acetoxymethyl)-6-(2-(4-((3-hydroxy-4-((E)-3-(3,4,5-trimethoxyphenyl)acryloyl)phenoxy)methyl)-1H-1,2,3-triazol-1-yl)ethoxy)tetrahydro-2H-pyran-3,4,5-triyl triacetate], the LC50 at 15 h [1] was over 200 µM, the EC50 ([2]; 95% CI in cell) was 53.9 µM and the EC50 [2] was 42.4 µg/mL.
In the case of `COc1ccc(-c2cc(=O)c3c(O)cc(OCc4cn([C@@H]5O[C@H](COC(C)=O)[C@@H](OC(C)=O)[C@H](OC(C)=O)[C@H]5OC(C)=O)nn4)cc3o2)cc1OC`, the melting point is reported as 143 to 145 °C.
For `COc1cc(/C=C/C(=O)c2ccc(OCc3cn([C@@H]4O[C@H](COC(C)=O)[C@@H](OC(C)=O)[C@H](OC(C)=O)[C@H]4OC(C)=O)nn3)cc2O)cc(OC)c1OC` [7b, (2R,3R,4S,5R,6R)-2-(acetoxymethyl)-6-(4-((3-hydroxy-4-((E)-3-(3,4,5-trimethoxyphenyl)acryloyl)phenoxy)methyl)-1H-1,2,3-triazol-1-yl)tetrahydro-2H-pyran-3,4,5-triyl triacetate], the LC50 at 15 h [1] was over 200 µM, the EC50 ([2]; 95% CI in cell) was 3.28 µM and the “diatom growth inhibition screening” value ([3]; 15 μM, Dunnett test p < 0.05) was “significant inhibitory activity”. The EC50 ([3]; 240 h) was 41.8 µM and 30.9 µg/mL, the AChE activity [4] was “significantly induced” and the “mortality of Artemia salina nauplii” value [5] was “less than 10%”.
With `COc1ccc(/C=C/C(=O)c2ccc(O)cc2O)cc1OC` [11a] the LC50 at 15 h [1] was over 200 µM, the EC50 ([2]; 95% CI in cell) was 18.1 µM and the “mortality of Artemia salina nauplii” value [5] was “less than 10%”.
For `COc1cc(-c2cc(=O)c3c(O)cc(OCc4cn(CCO[C@@H]5O[C@H](COC(C)=O)[C@@H](OC(C)=O)[C@H](OC(C)=O)[C@H]5OC(C)=O)nn4)cc3o2)cc(OC)c1OC` [4b, (2R,3R,4S,5R,6R)-2-(acetoxymethyl)-6-(2-(4-(((5-hydroxy-4-oxo-2-(3,4,5-trimethoxyphenyl)-4H-chromen-7-yl)oxy)methyl)-1H-1,2,3-triazol-1-yl)ethoxy)tetrahydro-2H-pyran-3,4,5-triyl triacetate], the LC50 at 15 h [1] was over 200 µM, the EC50 ([2]; 95% CI in cell) was 48.2 µM and the EC50 [2] was 38.6 µg/mL.
With `COc1ccc(-c2cc(=O)c3c(O)cc(OCc4cn(CCO[C@@H]5O[C@H](COC(C)=O)[C@@H](OC(C)=O)[C@H](OC(C)=O)[C@H]5OC(C)=O)nn4)cc3o2)cc1OC` [4a, (2R,3R,4S,5R,6R)-2-(acetoxymethyl)-6-(2-(4-(((2-(3,4-dimethoxyphenyl)-5-hydroxy-4-oxo-4H-chromen-7-yl)oxy)methyl)-1H-1,2,3-triazol-1-yl)ethoxy)tetrahydro-2H-pyran-3,4,5-triyl triacetate] the LC50 at 15 h [1] was over 200 µM, the EC50 ([2]; 95% CI in cell) was 42.6 µM and the EC50 [2] was 32.8 µg/mL.
`C#CCOc1ccc(C(=O)/C=C/c2cc(OC)c(OC)c(OC)c2)c(O)c1` [6b] gave an LC50 at 15 h [1] of over 200 µM, an EC50 ([2]; 95% CI in cell) of 85.6 µM and an EC50 [2] of 31.5 µg/mL. For the same compound, the “bacterial growth inhibition screening” value [6] was “significant inhibitory activity”.
In the case of `N#Cc1c(-c2ccc(Cl)cc2)[nH]c(C(F)(F)F)c1Br` [ECONEA], the “lethality to Artemia salina” value [7] is listed as 100%.
In the case of `COc1ccc(/C=C/C(=O)c2ccc(OCc3cn(CCO[C@@H]4O[C@H](COC(C)=O)[C@@H](OC(C)=O)[C@H](OC(C)=O)[C@H]4OC(C)=O)nn3)cc2O)cc1OC` [8a, (2R,3R,4S,5R,6R)-2-(acetoxymethyl)-6-(2-(4-((4-((E)-3-(3,4-dimethoxyphenyl)acryloyl)-3-hydroxyphenoxy)methyl)-1H-1,2,3-triazol-1-yl)ethoxy)tetrahydro-2H-pyran-3,4,5-triyl triacetate], the LC50 at 15 h [1] is reported as over 200 µM, the EC50 ([2]; 95% CI in cell) is reported as 35.8 µM and the EC50 [2] is reported as 27.1 µg/mL.
With `COc1cc(-c2cc(=O)c3c(O)cc(O)cc3o2)cc(OC)c1OC` [1b] the LC50 at 15 h [1] was over 200 µM, the EC50 ([2]; 95% CI in cell) was 8.34 µM and the “inhibition of Tyr” value ([8]; 100 µM) was 23.5%. The Tyr activity ([8]; all the concentrations tested (25, 50 and 100 μM), versus negative control) was “significantly decrease Tyr activity” and the “mortality of Artemia salina nauplii” value [5] was “less than 10%”.
For `C#CCOc1ccc(C(=O)/C=C/c2ccc(OC)c(OC)c2)c(O)c1` [6a], the LC50 at 15 h [1] was over 200 µM, the EC50 ([2]; 95% CI in cell) was 84.5 µM and the EC50 [2] was 28.6 µg/mL. The “bacterial growth inhibition screening” value [6] was “significant inhibitory activity”.
In the case of `COCOc1ccc(C(=O)/C=C/c2cc(OC)c(OC)c(OC)c2)c(O)c1`, the melting point is reported as 132 to 134 °C.
With `COc1cc(/C=C/C(=O)c2ccc(O)cc2O)cc(OC)c1OC` [11b] the LC50 at 15 h [1] was over 200 µM, the EC50 ([2]; 95% CI in cell) was 9.64 µM and the AChE activity [4] was “significantly induced”. The “mortality of Artemia salina nauplii” value [5] was “less than 10%”.
